From PMC7385619, “A triple action CDK4/6-PI3K-BET inhibitor with augmented cancer cell cytotoxicity” (Cell Discovery, 2020)
Like-named read-outs stand apart in the source and are kept apart here.

Experiments:
Test in all cases: KINOMEscan assay (Eurofins DiscoverX)
Assay type in all cases: binding
kinome (kinase panel) [1] = target: T1, kinome (kinase panel) (Homo sapiens, UniProt Q8TDR2); settings: STK35; 1000 nM; read-out: Percent Control
T1 construct: purchased Eurofins DiscoverX

kinome (kinase panel) [2] = target: T2, kinome (kinase panel) (Homo sapiens, UniProt P49759); settings: CLK1; 1000 nM; read-out: Percent Control
T2 construct: purchased Eurofins DiscoverX

kinome (kinase panel) [3] = target: T3, kinome (kinase panel) (Homo sapiens, UniProt Q9UM73); settings: ALK; 1000 nM; read-out: Percent Control
T3 construct: purchased Eurofins DiscoverX

kinome (kinase panel) [4] = target: T4, kinome (kinase panel) (Homo sapiens, UniProt Q8TF76); settings: HASPIN (Entrez GSG2); 1000 nM; read-out: Percent Control
T4 construct: purchased Eurofins DiscoverX

kinome (kinase panel) [5] = target: T5, kinome (kinase panel) (Homo sapiens, UniProt O76039); settings: CDKL5; 1000 nM; read-out: Percent Control
T5 construct: purchased Eurofins DiscoverX

kinome (kinase panel) [6] = target: T6, kinome (kinase panel) (Homo sapiens, UniProt P49761); settings: CLK3; 1000 nM; read-out: Percent Control
T6 construct: purchased Eurofins DiscoverX

kinome (kinase panel) [7] = target: T7, kinome (kinase panel) (Homo sapiens, UniProt Q96J92); settings: WNK4; 1000 nM; read-out: Percent Control
T7 construct: purchased Eurofins DiscoverX
T7 sequence (Q96J92 whole entry): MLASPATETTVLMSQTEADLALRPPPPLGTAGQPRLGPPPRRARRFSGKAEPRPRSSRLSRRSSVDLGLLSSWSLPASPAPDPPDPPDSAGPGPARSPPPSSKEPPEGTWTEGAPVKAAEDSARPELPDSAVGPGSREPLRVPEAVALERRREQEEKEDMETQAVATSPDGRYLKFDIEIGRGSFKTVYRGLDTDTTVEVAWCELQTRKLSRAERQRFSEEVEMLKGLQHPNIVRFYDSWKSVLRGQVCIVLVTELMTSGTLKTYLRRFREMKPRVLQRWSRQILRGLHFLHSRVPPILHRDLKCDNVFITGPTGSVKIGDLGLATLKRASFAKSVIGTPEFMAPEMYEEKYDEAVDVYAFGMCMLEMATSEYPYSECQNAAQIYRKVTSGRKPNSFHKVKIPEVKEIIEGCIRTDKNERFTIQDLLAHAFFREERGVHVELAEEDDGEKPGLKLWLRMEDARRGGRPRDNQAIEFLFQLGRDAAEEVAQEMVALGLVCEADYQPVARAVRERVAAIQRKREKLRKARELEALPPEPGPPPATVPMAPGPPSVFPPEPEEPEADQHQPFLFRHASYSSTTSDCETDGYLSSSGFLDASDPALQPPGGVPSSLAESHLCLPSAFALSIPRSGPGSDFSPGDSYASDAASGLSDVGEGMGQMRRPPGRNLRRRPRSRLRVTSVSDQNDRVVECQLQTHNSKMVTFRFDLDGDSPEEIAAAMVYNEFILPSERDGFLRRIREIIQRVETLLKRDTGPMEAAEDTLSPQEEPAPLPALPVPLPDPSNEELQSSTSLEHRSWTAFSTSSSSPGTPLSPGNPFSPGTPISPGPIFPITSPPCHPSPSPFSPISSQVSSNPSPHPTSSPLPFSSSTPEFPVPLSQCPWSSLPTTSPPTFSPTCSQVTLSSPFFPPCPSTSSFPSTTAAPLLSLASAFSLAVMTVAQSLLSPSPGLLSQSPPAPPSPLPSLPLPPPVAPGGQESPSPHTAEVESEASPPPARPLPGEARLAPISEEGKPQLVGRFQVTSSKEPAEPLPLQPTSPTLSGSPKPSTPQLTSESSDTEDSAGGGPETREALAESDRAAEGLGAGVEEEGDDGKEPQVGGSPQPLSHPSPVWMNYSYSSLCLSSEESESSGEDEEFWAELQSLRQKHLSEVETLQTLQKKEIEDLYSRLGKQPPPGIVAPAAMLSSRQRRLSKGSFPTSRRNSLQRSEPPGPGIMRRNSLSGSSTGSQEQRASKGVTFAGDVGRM

kinome (kinase panel) [8] = target: T8, kinome (kinase panel) (Homo sapiens, UniProt P08581, Y1235D); settings: […]; 1000 nM; read-out: Percent Control
T8 construct: purchased Eurofins DiscoverX

kinome (kinase panel) [9] = target: T9, kinome (kinase panel) (Homo sapiens, UniProt P00519, E255K); settings: read-out: Percent Control
T9 construct: purchased Eurofins DiscoverX

kinome (kinase panel) [10] = target: T10, kinome (kinase panel) (Homo sapiens, UniProt P54762); settings: EPHB1; 1000 nM; read-out: Percent Control
T10 construct: purchased Eurofins DiscoverX

kinome (kinase panel) [11] = target: T11, kinome (kinase panel) (Homo sapiens, UniProt P04629); settings: TRKA (NTRK1); 1000 nM; read-out: Percent Control
T11 construct: purchased Eurofins DiscoverX

kinome (kinase panel) [12] = target: T12, kinome (kinase panel) (Homo sapiens, UniProt Q06187); settings: BTK; 1000 nM; read-out: Percent Control
T12 construct: purchased Eurofins DiscoverX
T12 sequence (Q06187 whole entry): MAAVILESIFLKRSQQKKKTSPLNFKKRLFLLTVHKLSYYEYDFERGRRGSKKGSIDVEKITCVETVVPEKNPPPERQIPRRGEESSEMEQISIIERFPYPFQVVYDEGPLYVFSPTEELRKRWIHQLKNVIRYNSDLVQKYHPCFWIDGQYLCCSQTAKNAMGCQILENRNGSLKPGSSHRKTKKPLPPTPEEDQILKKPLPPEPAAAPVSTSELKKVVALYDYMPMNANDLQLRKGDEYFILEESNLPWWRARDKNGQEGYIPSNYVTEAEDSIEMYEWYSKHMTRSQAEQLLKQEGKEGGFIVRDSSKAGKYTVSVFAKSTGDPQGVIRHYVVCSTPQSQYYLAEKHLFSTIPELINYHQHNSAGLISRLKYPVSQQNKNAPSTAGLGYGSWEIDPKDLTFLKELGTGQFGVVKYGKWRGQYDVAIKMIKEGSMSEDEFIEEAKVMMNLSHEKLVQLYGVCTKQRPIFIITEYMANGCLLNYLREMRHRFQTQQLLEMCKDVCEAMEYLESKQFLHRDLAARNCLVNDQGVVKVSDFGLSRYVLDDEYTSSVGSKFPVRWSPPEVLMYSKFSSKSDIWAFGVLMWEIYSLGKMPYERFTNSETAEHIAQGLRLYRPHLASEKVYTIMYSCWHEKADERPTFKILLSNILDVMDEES

kinome (kinase panel) [13] = target: T13, kinome (kinase panel) (Homo sapiens, UniProt Q9Y2U5); settings: MAP3K2; 1000 nM; read-out: Percent Control
T13 construct: purchased Eurofins DiscoverX

kinome (kinase panel) [14] = target: T14, kinome (kinase panel) (Homo sapiens, UniProt Q00537); settings: PCTK2 (Entrez CDK17); 1000 nM; read-out: Percent Control
T14 construct: purchased Eurofins DiscoverX
T14 sequence (Q00537 whole entry): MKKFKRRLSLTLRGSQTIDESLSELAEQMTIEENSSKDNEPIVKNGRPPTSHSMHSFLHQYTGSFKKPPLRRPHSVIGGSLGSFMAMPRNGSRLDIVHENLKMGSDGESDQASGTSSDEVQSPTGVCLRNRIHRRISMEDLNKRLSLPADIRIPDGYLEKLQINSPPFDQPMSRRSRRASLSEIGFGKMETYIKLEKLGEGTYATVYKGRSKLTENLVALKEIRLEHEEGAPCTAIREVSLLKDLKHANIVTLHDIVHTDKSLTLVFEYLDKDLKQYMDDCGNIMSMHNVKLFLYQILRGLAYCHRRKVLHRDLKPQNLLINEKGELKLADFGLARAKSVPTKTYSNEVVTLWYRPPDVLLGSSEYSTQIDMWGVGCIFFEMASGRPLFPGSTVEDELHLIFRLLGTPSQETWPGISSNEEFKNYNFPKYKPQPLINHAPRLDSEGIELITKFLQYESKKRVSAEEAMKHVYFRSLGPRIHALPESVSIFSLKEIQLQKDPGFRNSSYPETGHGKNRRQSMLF

kinome (kinase panel) [15] = target: T15, kinome (kinase panel) (Homo sapiens, UniProt P53350); settings: PLK1; 1000 nM; read-out: Percent Control
T15 construct: purchased Eurofins DiscoverX

kinome (kinase panel) [16] = target: T16, kinome (kinase panel) (Homo sapiens, UniProt P54764); settings: EPHA4; 1000 nM; read-out: Percent Control
T16 construct: purchased Eurofins DiscoverX

kinome (kinase panel) [17] = target: T17, kinome (kinase panel) (Homo sapiens, UniProt O14920); settings: IKK-beta (Entrez IKBKB); 1000 nM; read-out: Percent Control
T17 construct: purchased Eurofins DiscoverX

kinome (kinase panel) [18] = target: T18, kinome (kinase panel) (Homo sapiens, UniProt O75716); settings: STK16; 1000 nM; read-out: Percent Control
T18 construct: purchased Eurofins DiscoverX

kinome (kinase panel) [19] = target: T19, kinome (kinase panel) (Homo sapiens, UniProt Q9BX84); settings: TRPM6; 1000 nM; read-out: Percent Control
T19 construct: purchased Eurofins DiscoverX

kinome (kinase panel) [20] = target: T20, kinome (kinase panel) (Homo sapiens, UniProt P51957); settings: NEK4; 1000 nM; read-out: Percent Control
T20 construct: purchased Eurofins DiscoverX

kinome (kinase panel) [21] = target: T21, kinome (kinase panel) (Homo sapiens, UniProt Q15349); settings: 1000 nM, read-out: Percent Control
T21 construct: purchased Eurofins DiscoverX
T21 sequence (Q15349 whole entry): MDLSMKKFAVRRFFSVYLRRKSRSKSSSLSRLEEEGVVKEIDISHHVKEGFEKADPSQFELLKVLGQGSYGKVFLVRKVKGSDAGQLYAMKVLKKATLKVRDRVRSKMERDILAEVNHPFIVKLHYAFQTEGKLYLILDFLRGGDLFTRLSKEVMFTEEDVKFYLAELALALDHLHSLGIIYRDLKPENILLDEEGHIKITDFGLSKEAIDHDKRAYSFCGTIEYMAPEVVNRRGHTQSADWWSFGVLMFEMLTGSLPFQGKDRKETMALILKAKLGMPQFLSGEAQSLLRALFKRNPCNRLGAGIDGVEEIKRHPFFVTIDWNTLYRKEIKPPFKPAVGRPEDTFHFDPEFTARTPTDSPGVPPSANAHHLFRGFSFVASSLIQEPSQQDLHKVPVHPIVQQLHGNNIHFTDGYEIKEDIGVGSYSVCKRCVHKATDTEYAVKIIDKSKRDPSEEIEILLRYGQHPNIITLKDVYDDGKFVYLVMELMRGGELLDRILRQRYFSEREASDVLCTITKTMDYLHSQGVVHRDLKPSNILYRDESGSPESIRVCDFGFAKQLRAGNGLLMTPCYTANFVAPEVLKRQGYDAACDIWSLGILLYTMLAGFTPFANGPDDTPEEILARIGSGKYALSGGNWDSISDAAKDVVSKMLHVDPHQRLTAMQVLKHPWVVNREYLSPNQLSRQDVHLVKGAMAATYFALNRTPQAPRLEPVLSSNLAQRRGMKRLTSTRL

kinome (kinase panel) [22] = target: T22, kinome (kinase panel) (Homo sapiens, UniProt Q13177); settings: PAK2; 1000 nM; read-out: Percent Control
T22 construct: purchased Eurofins DiscoverX

kinome (kinase panel) [23] = target: T23, kinome (kinase panel) (Homo sapiens, UniProt P21127); settings: CDC2L1 (Entrez CDK11B); 1000 nM; read-out: Percent Control
T23 construct: purchased Eurofins DiscoverX

kinome (kinase panel) [24] = target: T24, kinome (kinase panel) (Homo sapiens, UniProt Q9NRP7); settings: STK36; 1000 nM; read-out: Percent Control
T24 construct: purchased Eurofins DiscoverX

kinome (kinase panel) [25] = target: T25, kinome (kinase panel) (Homo sapiens, UniProt O94921); settings: PFTK1 (Entrez CDK14); 1000 nM; read-out: Percent Control
T25 construct: purchased Eurofins DiscoverX

kinome (kinase panel) [26] = target: T26, kinome (kinase panel) (Homo sapiens, UniProt P25098); settings: GRK2 (Entrez ADRBK1); 1000 nM; read-out: Percent Control
T26 construct: purchased Eurofins DiscoverX

kinome (kinase panel) [27] = target: T27, kinome (kinase panel) (Homo sapiens, UniProt O75460); settings: ERN1; 1000 nM; read-out: Percent Control
T27 construct: purchased Eurofins DiscoverX

kinome (kinase panel) [28] = target: T28, kinome (kinase panel) (Homo sapiens, UniProt Q8IYT8); settings: ULK2; 1000 nM; read-out: Percent Control
T28 construct: purchased Eurofins DiscoverX
T28 sequence (Q8IYT8 whole entry): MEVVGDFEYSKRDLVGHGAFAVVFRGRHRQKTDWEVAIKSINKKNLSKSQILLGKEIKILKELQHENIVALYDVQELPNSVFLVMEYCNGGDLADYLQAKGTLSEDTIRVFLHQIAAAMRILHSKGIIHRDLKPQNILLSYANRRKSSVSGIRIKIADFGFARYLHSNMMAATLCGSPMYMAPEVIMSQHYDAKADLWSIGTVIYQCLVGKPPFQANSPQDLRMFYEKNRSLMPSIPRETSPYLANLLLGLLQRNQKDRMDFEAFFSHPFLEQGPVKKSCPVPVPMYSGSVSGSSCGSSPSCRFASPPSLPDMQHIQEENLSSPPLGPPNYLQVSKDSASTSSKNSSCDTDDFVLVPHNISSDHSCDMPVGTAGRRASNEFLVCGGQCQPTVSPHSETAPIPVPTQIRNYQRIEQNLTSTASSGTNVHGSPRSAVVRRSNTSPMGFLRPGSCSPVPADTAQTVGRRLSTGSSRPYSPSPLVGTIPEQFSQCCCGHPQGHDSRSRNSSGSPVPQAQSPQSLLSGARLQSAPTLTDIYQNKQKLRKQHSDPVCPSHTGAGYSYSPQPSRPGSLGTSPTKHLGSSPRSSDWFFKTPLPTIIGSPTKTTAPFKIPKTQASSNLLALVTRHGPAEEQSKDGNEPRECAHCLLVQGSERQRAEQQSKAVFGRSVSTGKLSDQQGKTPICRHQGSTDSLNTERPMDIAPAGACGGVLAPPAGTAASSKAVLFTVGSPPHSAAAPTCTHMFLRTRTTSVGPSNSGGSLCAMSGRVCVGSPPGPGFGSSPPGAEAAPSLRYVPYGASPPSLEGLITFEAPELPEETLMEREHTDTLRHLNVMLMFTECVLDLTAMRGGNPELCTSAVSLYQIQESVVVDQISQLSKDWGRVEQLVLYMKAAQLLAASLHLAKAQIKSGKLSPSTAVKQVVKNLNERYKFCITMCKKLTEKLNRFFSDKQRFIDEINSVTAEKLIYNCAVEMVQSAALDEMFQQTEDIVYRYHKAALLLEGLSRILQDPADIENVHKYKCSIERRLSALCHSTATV

kinome (kinase panel) [29] = target: T29, kinome (kinase panel) (Homo sapiens, UniProt O00506); settings: YSK1 (STK25); 1000 nM; read-out: Percent Control
T29 construct: purchased Eurofins DiscoverX

kinome (kinase panel) [30] = target: T30, kinome (kinase panel) (Homo sapiens, UniProt P00533, L858R); settings: […]; 1000 nM; read-out: Percent Control
T30 construct: purchased Eurofins DiscoverX

kinome (kinase panel) [31] = target: T31, kinome (kinase panel) (Homo sapiens, UniProt Q8IU85); settings: CAMK1D; 1000 nM; read-out: Percent Control
T31 construct: purchased Eurofins DiscoverX
T31 sequence (Q8IU85 whole entry): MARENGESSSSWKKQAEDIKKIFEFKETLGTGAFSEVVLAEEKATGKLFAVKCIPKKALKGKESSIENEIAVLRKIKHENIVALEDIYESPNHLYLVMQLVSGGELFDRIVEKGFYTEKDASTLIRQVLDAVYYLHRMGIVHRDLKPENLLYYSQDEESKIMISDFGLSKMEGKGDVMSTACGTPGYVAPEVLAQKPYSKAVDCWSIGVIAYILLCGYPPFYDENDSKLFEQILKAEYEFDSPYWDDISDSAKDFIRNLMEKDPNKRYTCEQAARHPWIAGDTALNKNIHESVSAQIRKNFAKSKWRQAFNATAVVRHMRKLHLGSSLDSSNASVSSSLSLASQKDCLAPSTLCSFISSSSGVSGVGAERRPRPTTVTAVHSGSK

kinome (kinase panel) [32] = target: T32, kinome (kinase panel) (Homo sapiens, UniProt Q16539); settings: p38-alpha (Entrez MAPK14); 1000 nM; read-out: Percent Control
T32 construct: purchased Eurofins DiscoverX
T32 sequence (Q16539 whole entry): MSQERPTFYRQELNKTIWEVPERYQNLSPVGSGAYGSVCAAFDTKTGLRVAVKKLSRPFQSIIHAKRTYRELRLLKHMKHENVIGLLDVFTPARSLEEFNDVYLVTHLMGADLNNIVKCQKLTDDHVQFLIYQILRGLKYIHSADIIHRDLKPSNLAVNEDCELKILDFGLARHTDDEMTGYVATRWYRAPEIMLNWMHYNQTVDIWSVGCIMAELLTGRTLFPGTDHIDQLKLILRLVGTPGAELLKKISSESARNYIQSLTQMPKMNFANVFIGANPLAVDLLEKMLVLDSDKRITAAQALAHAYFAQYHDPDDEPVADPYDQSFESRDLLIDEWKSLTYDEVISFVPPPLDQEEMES

Molecule `CN(C)C(=O)c1cc2cnc(Nc3ccc(-c4csc5c(=O)cc(N6CCOCC6)oc45)cc3)nc2n1C1CCCC1` [SRX3177] has a remaining binding at 1 µM (kinome (kinase panel) [1]) of 100%, a remaining binding at 1 µM (kinome (kinase panel) [2]) of 100% and a remaining binding at 1 µM (kinome (kinase panel) [3]) of 66%. It also gave a remaining binding at 1 µM (kinome (kinase panel) [4]) of 67%, a remaining binding at 1 µM (kinome (kinase panel) [5]) of 65% and a remaining binding at 1 µM (kinome (kinase panel) [6]) of 79%. For the same molecule, the remaining binding at 1 µM (kinome (kinase panel) [7]) was 90%, the remaining binding at 1 µM (kinome (kinase panel) [8]) was 100% and the remaining binding at 1 µM (kinome (kinase panel) [9]) was 59%. For the same molecule, the remaining binding at 1 µM (kinome (kinase panel) [10]) was 100%, the remaining binding at 1 µM (kinome (kinase panel) [11]) was 1.1% and the remaining binding at 1 µM (kinome (kinase panel) [12]) was 67%. The remaining binding at 1 µM (kinome (kinase panel) [13]) was 72%, the remaining binding at 1 µM (kinome (kinase panel) [14]) was 55% and the remaining binding at 1 µM (kinome (kinase panel) [15]) was 75%. It also gave a remaining binding at 1 µM (kinome (kinase panel) [16]) of 98%, a remaining binding at 1 µM (kinome (kinase panel) [17]) of 71% and a remaining binding at 1 µM (kinome (kinase panel) [18]) of 28%. It also gave a remaining binding at 1 µM (kinome (kinase panel) [19]) of 99%, a remaining binding at 1 µM (kinome (kinase panel) [20]) of 89% and a remaining binding at 1 µM (kinome (kinase panel) [21]; RSK3(Kin.Dom.1-N-terminal) (RPS6KA2)) of 80%. The remaining binding at 1 µM (kinome (kinase panel) [21]; RSK3(Kin.Dom.2-C-terminal) (RPS6KA2)) was 74%, the remaining binding at 1 µM (kinome (kinase panel) [22]) was 78% and the remaining binding at 1 µM (kinome (kinase panel) [23]) was 99%. The remaining binding at 1 µM (kinome (kinase panel) [24]) was 92%, the remaining binding at 1 µM (kinome (kinase panel) [25]) was 73% and the remaining binding at 1 µM (kinome (kinase panel) [26]) was 73%. For the same molecule, the remaining binding at 1 µM (kinome (kinase panel) [27]) was 85%, the remaining binding at 1 µM (kinome (kinase panel) [28]) was 79% and the remaining binding at 1 µM (kinome (kinase panel) [29]) was 100%. The remaining binding at 1 µM (kinome (kinase panel) [30]) was 100%, the remaining binding at 1 µM (kinome (kinase panel) [31]) was 95% and the remaining binding at 1 µM (kinome (kinase panel) [32]) was 100%.
